Assay results: the supplement of paper PMC10307832

Legend:
Experiment in all cases: relative viability (nuclei count vs DMSO), 5 days (fraction); higher = more cells survive
[1] = tested on: NCI-H2342
How it was run: (§1)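 One day after seeding in 1536-well plates, lung cancer cell lines were dosed by pin tool. Dosing was either single-drug or a fixed anchor-drug dose plus five library-drug doses (not always all listed) in √10 steps. After 5 days, nuclei were stained in one fix-and-stain step and counted on 4× images, and relative viability is the nuclei count of treated wells over that of vehicle wells, given as the median of duplicate plates.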

[2] = tested on: HOP-62
How it was run: as §1

[3] = tested on: NCI-H23
How it was run: as §1

[4] = tested on: NCI-H460
How it was run: as §1

[5] = tested on: 201T
How it was run: as §1

[6] = tested on: COR-L23
How it was run: as §1

[7] = tested on: LC-2-ad
How it was run: as §1

[8] = tested on: NCI-H2087
How it was run: as §1

[9] = tested on: NCI-H322M
How it was run: as §1

[10] = tested on: NCI-H1944
How it was run: as §1

[11] = tested on: NCI-H2009
How it was run: as §1

[12] = tested on: PC-3 [JPC-3]
How it was run: as §1

[13] = tested on: ChaGo-K-1
How it was run: as §1

[14] = tested on: NCI-H727
How it was run: as §1

[15] = tested on: NCI-H1651
How it was run: as §1

[16] = tested on: NCI-H2126
How it was run: as §1

[17] = tested on: NCI-H1355
How it was run: as §1

[18] = tested on: NCI-H1666
How it was run: as §1

[19] = tested on: ABC-1
How it was run: as §1

[20] = tested on: CAL-12T
How it was run: as §1

[21] = tested on: SW 1573
How it was run: as §1

[22] = tested on: NCI-H661
How it was run: as §1

Compound: C=C1C(=O)O[C@@H](CCCCCCCC)[C@@H]1C(=O)O [C-75] + CC(=O)c1c(C)c2cnc(Nc3ccc(N4CCNCC4)cn3)nc2n(C2CCCC2)c1=O [Palbociclib] (partner 0.5 µM)
- relative viability ([1]; first compound 0.08 µM): 0.546
- relative viability ([1]; first compound 0.253 µM): 0.488
- relative viability ([1]; first compound 0.8 µM): 0.551
- relative viability ([1]; first compound 2.53 µM): 0.541
- relative viability ([1]; first compound 8 µM): 0.571
- relative viability ([2]; first compound 0.08 µM): 0.46
- relative viability ([2]; first compound 0.253 µM): 0.431
- relative viability ([2]; first compound 0.8 µM): 0.484
- relative viability ([2]; first compound 2.53 µM): 0.361
- relative viability ([2]; first compound 8 µM): 0.413
- relative viability ([3]; first compound 0.08 µM): 0.499
- relative viability ([3]; first compound 0.253 µM): 0.582
- relative viability ([3]; first compound 0.8 µM): 0.511
- relative viability ([3]; first compound 2.53 µM): 0.467
- relative viability ([3]; first compound 8 µM): 0.42
- relative viability ([4]; first compound 0.08 µM): 0.0813
- relative viability ([4]; first compound 0.253 µM): 0.104
- relative viability ([4]; first compound 0.8 µM): 0.126
- relative viability ([4]; first compound 2.53 µM): 0.132
- relative viability ([4]; first compound 8 µM): 0.155
- relative viability ([5]; first compound 0.08 µM): 0.377
- relative viability ([5]; first compound 0.253 µM): 0.374
- relative viability ([5]; first compound 0.8 µM): 0.336
- relative viability ([5]; first compound 2.53 µM): 0.3
- relative viability ([5]; first compound 8 µM): 0.347
- relative viability ([6]; first compound 0.08 µM): 0.353
- relative viability ([6]; first compound 0.253 µM): 0.305
- relative viability ([6]; first compound 0.8 µM): 0.255
- relative viability ([6]; first compound 2.53 µM): 0.24
- relative viability ([6]; first compound 8 µM): 0.28
- relative viability ([7]; first compound 0.08 µM): 0.555
- relative viability ([7]; first compound 0.253 µM): 0.474
- relative viability ([7]; first compound 0.8 µM): 0.471
- relative viability ([7]; first compound 2.53 µM): 0.381
- relative viability ([7]; first compound 8 µM): 0.482
- relative viability ([8]; first compound 0.08 µM): 0.239
- relative viability ([8]; first compound 0.253 µM): 0.232
- relative viability ([8]; first compound 0.8 µM): 0.239
- relative viability ([8]; first compound 2.53 µM): 0.209
- relative viability ([8]; first compound 8 µM): 0.217
- relative viability ([9]; first compound 0.08 µM): 0.481
- relative viability ([9]; first compound 0.253 µM): 0.525
- relative viability ([9]; first compound 0.8 µM): 0.479
- relative viability ([9]; first compound 8 µM): 0.481
- relative viability ([10]; first compound 0.08 µM): 0.34
- relative viability ([10]; first compound 0.253 µM): 0.296
- relative viability ([10]; first compound 0.8 µM): 0.279
- relative viability ([10]; first compound 2.53 µM): 0.305
- relative viability ([10]; first compound 8 µM): 0.305
- relative viability ([11]; first compound 0.08 µM): 0.24
- relative viability ([11]; first compound 0.253 µM): 0.192
- relative viability ([11]; first compound 0.8 µM): 0.19
- relative viability ([11]; first compound 2.53 µM): 0.171
- relative viability ([11]; first compound 8 µM): 0.216
- relative viability ([12]; first compound 0.08 µM): 0.54
- relative viability ([12]; first compound 0.253 µM): 0.509
- relative viability ([12]; first compound 0.8 µM): 0.515
- relative viability ([12]; first compound 2.53 µM): 0.502
- relative viability ([12]; first compound 8 µM): 0.568
- relative viability ([13]; first compound 0.08 µM): 0.87
- relative viability ([13]; first compound 0.253 µM): 0.894
- relative viability ([13]; first compound 0.8 µM): 0.888
- relative viability ([13]; first compound 2.53 µM): 0.519
- relative viability ([13]; first compound 8 µM): 0.915
- relative viability ([14]; first compound 0.08 µM): 0.755
- relative viability ([14]; first compound 0.253 µM): 0.667
- relative viability ([14]; first compound 0.8 µM): 0.544
- relative viability ([14]; first compound 2.53 µM): 0.614
- relative viability ([14]; first compound 8 µM): 0.624
- relative viability ([15]; first compound 0.08 µM): 0.509
- relative viability ([15]; first compound 0.253 µM): 0.521
- relative viability ([15]; first compound 0.8 µM): 0.521
- relative viability ([15]; first compound 2.53 µM): 0.476
- relative viability ([15]; first compound 8 µM): 0.55
- relative viability ([16]; first compound 0.08 µM): 0.348
- relative viability ([16]; first compound 0.253 µM): 0.35
- relative viability ([16]; first compound 0.8 µM): 0.335
- relative viability ([16]; first compound 2.53 µM): 0.349
- relative viability ([16]; first compound 8 µM): 0.339
- relative viability ([17]; first compound 0.08 µM): 0.402
- relative viability ([17]; first compound 0.253 µM): 0.388
- relative viability ([17]; first compound 0.8 µM): 0.428
- relative viability ([17]; first compound 2.53 µM): 0.364
- relative viability ([17]; first compound 8 µM): 0.463
- relative viability ([18]; first compound 0.08 µM): 0.626
- relative viability ([18]; first compound 0.253 µM): 0.638
- relative viability ([18]; first compound 0.8 µM): 0.662
- relative viability ([18]; first compound 8 µM): 0.594
- relative viability ([19]; first compound 0.08 µM): 0.711
- relative viability ([19]; first compound 0.253 µM): 0.935
- relative viability ([19]; first compound 0.8 µM): 0.559
- relative viability ([19]; first compound 2.53 µM): 0.494
- relative viability ([19]; first compound 8 µM): 0.494
- relative viability ([20]; first compound 0.08 µM): 0.531
- relative viability ([20]; first compound 0.253 µM): 0.533
- relative viability ([20]; first compound 0.8 µM): 0.452
- relative viability ([20]; first compound 2.53 µM): 0.458
- relative viability ([20]; first compound 8 µM): 0.449
- relative viability ([21]; first compound 0.08 µM): 0.357
- relative viability ([21]; first compound 0.253 µM): 0.394
- relative viability ([21]; first compound 0.8 µM): 0.47
- relative viability ([21]; first compound 2.53 µM): 0.423
- relative viability ([21]; first compound 8 µM): 0.351
- relative viability ([22]; first compound 0.08 µM): 0.429
- relative viability ([22]; first compound 0.253 µM): 0.41
- relative viability ([22]; first compound 0.8 µM): 0.378
- relative viability ([22]; first compound 2.53 µM): 0.374
- relative viability ([22]; first compound 8 µM): 0.394
